Reference: US5334582A, “Pharmaceutical bacteriocin compositions and methods for using the same” (Applied Microbiology, Inc., priority 1993, dated 1994)
Read-outs that look alike come from different tables or passages of the source.

Legend:
Escherichia coli = settings: for % survival at 1 min: nisin 100 μg/ml and/or EDTA 1.0 mM
Procedure: The rapid activities of various chelator-enhanced nisin formulations were evaluated in acid vehicles in a germicidal suspension assay.
E. coli cells from an overnight Trypticase soy nutrient agar (TSA) were resuspended to a density measured as an absorbance of 1.0 at 600 nm in sterile ddH2 O. The reaction of the cells with each of the bactericidal test formulations analyzed is started by addition of 30 μl of cells to 970 μl of test formulation. The reaction mixture was incubated at 37° C. for at least 1 minute and then centrifuged in a microfuge for 1 minute. The cell pellet was washed by resuspension in 1 ml of neutralization buffer. (The neutralization buffer: 50 mM Tris-HCl, pH 7.0, 5 mM MgSO4, 20 mM CaCl2, 0.1 M NaCl and 0.1% gelatin was prepared by first making Tris buffer and adjusting the pH. The salts and gelatin were then added and the solution stirred with heat until the solution was clear. The solution was then autoclaved for 20 min. The neutralization buffer was used without dilution.) The cells were centrifuged in a microfuge for 1 minute and resuspended in 1 ml of neutralization buffer. The viable count was determined by spreading 100 μl of bacterial suspension and serial dilutions thereof in neutralization buffer on nutrient agar and scoring surviving colonies after 24 h at 37° C. Percent survival relative to untreated controls was calculated from the scored values.

E. coli strain ATCC8739 = experiment: nisin-citrate agar growth inhibition assay; format: cell-based; settings: Trypticase Soy Agar
Procedure: However, nisin in the presence of citrate is active against gram negative bacteria. […] This nisin-citrate agar assay has much more general applicability. The assay provides a method for screening potential agents other than citrate in combination with nisin for their potential properties as enhancers of nisin's inherent bactericidal activity.
E. coli is resuspended to an optical density of 1.0 at A600. A 100 μl sample of the bacterial suspension is spread uniformly on Trypticase Soy nutrient agar (TSA) supplemented with various concentrations of citrate (eg. 0.1%, 0.3%, 1.0%, 3.0%) and incubated for 1 hour at 37° C. A nisin stock solution and serial dilutions thereof in 0.1% bovine serum albumin (BSA), are prepared and 5 μl are taken from each and deposited onto the growing bacterial lawn. The TSA plates are then incubated for 24 hours at 37° C. After 24 hours at 37° C., E. coli grown on TSA supplemented with citrate form a confluent lawn. […] The effectiveness of nisin against the gram negative bacteria can be assessed from determining the minimum amount of nisin required to produce a clear zone of growth inhibition. As the concentration of citrate in the nutrient agar is increased, less nisin is required to inhibit the growth of E. coli, as is illustrated by the data shown in Table 6.

[1] = 0.1% w/v acetate pH 3.5, 37° C.
[2] = 0.1% w/v citrate pH 3.5, 37° C.
[3] = 0.1% w/v lactate pH 3.5, 37° C.
[4] = 0.3% w/v acetate pH 3.5, 37° C.
[5] = 0.3% w/v citrate pH 3.5, 37° C.
[6] = 0.3% w/v lactate pH 3.5, 37° C.
[7] = 1.0% w/v acetate pH 3.5, 37° C.
[8] = 1.0% w/v citrate pH 3.5, 37° C.
[9] = 3.0% w/v citrate pH 3.5, 37° C.
[10] = pH 2.0, 20 mM Na acetate buffer, 37° C., initial count 4 × 10^7 cfu/ml

O=C(O)CN(CCN(CC(=O)O)CC(=O)O)CC(=O)O [EDTA]
% survival at 1 min (Escherichia coli; [1]): 40% | % survival at 1 min (Escherichia coli; [2]): 100% | % survival at 1 min (Escherichia coli; [3]): 5.1% | % survival at 1 min (Escherichia coli; [4]): 25% | % survival at 1 min (Escherichia coli; [5]): 50.0% | % survival at 1 min (Escherichia coli; [6]): 0.46% | % survival at 1 min (Escherichia coli; [7]): 25% | % survival at 1 min (Escherichia coli; [8]): 47.9% | % survival at 1 min (Escherichia coli; 1.0% w/v lactate pH 3.5, 37° C.): 0.91% | % survival at 1 min (Escherichia coli; [9]): 100% | % survival at 1 min (Escherichia coli; [10]): 0.07%

nisin
% survival at 1 min (Escherichia coli; [1]): 9.6% | % survival at 1 min (Escherichia coli; [2]): 0.003% | % survival at 1 min (Escherichia coli; [3]): 4.4% | % survival at 1 min (Escherichia coli; [4]): 70% | % survival at 1 min (Escherichia coli; [5]): 0.0007% | % survival at 1 min (Escherichia coli; [6]): 0.24% | % survival at 1 min (Escherichia coli; [7]): 100% | % survival at 1 min (Escherichia coli; [8]): 0.56% | % survival at 1 min (Escherichia coli; 3.0% w/v acetate pH 3.5, 37° C.): 100% | % survival at 1 min (Escherichia coli; [9]): 14.6% | activity towards gram negative bacteria (Escherichia coli; nisin by itself or in the presence of citrate): ineffective | % survival at 1 min (Escherichia coli; [10]): 0.28% | % survival at 1 min (Escherichia coli; pH 3.5, 20 mM Na acetate buffer, 37° C.): 100% | % survival at 1 min (Escherichia coli; pH 4.0, 20 mM Na acetate buffer, 37° C.): 100% | Nisin NIC (nominal inhibitory concentration minimally required to prevent growth) (E. coli strain ATCC8739; 0% citrate): 3,333 μg/ml | Nisin NIC (nominal inhibitory concentration minimally required to prevent growth) (E. coli strain ATCC8739; 0.1% citrate): 370 µg/mL | Nisin NIC (nominal inhibitory concentration minimally required to prevent growth) (E. coli strain ATCC8739; 0.3% citrate): 123 µg/mL | Nisin NIC (nominal inhibitory concentration minimally required to prevent growth) (E. coli strain ATCC8739; 1.0% citrate): 13.7 µg/mL | Nisin NIC (nominal inhibitory concentration minimally required to prevent growth) (E. coli strain ATCC8739; 3.0% citrate): 0.06 µg/mL
